How the values were obtained:
Format in all cases: functional
[1] = Growth inhibition of human BSY1 cells after 48 hrs by SRB assay; conditions: BSY-1, 48 h
SF-268 = assay: Growth inhibition of human SF268 cells after 48 hrs by SRB assay; conditions: SF-268, 48 h
HCT-15 = assay: Growth inhibition of human HCT15 cells after 48 hrs by SRB assay; conditions: HCT-15, 48 h
ACHN = assay: Growth inhibition of human ACHN cells after 48 hrs by SRB assay
MDA-MB-231 = assay: Growth inhibition of human MDA-MB-231 cells after 48 hrs by SRB assay; conditions: MDA-MB-231, 48 h
OVCAR-3 = assay: Growth inhibition of human OVCAR-3 cells after 48 hrs by SRB assay; conditions: OVCAR-3, 48 h
OVCAR-8 = assay: Growth inhibition of human OVCAR8 cells after 48 hrs by SRB assay; conditions: OVCAR-8, 48 h
[2] = Growth inhibition of human HBC5 cells after 48 hrs by SRB assay; conditions: HBC5, 48 h
[3] = Growth inhibition of human RXF631L cells after 48 hrs by SRB assay; conditions: RXF 631, 48 h
[4] = Growth inhibition of human HBC4 cells after 48 hrs by SRB assay; conditions: HBC4, 48 h
NCI-H522 = assay: Growth inhibition of human NCI-H522 cells after 48 hrs by SRB assay; conditions: NCI-H522, 48 h
[5] = read-out: LC50 (the source's name)
[6] = read-out: pLC50 (the source's name) (converted)

For C=C1[C@@H](OC(C)=O)CC[C@@]2(C)C[C@H](OC(C)=O)C3=C(C)C[C@H](OC(=O)C(C)CC)[C@@H]([C@@H](OC(C)=O)[C@H]12)C3(C)C (stereo not given in full), the GI50 ([1]; read-out: GI50) was 30 µM, the CC50 [1, 5] was over 100 µM and the TGI ([1]; read-out: TGI) was over 100 µM. The GI50 ([1]; read-out: pGI50 (converted)) was 30.2 µM, the TGI ([1]; read-out: pTGI (converted)) was 100 µM and the GI50 (SF-268; read-out: GI50) was 74 µM. For the same compound, the CC50 (SF-268; [5]) was over 100 µM, the TGI (SF-268; read-out: TGI) was over 100 µM and the GI50 (SF-268; read-out: pGI50 (converted)) was 74.1 µM. It also gave a CC50 (SF-268; [6]) of 100 µM, a TGI (SF-268; read-out: pTGI (converted)) of 100 µM and a GI50 (HCT-15; read-out: GI50) of 32 µM. The CC50 (HCT-15; [5]) was over 100 µM, the TGI (HCT-15; read-out: TGI) was over 100 µM and the GI50 (HCT-15; read-out: pGI50 (converted)) was 32.4 µM. The CC50 (HCT-15; read-out: pLC50 (converted)) was over 100 µM, the TGI (HCT-15; read-out: pTGI (converted)) was 100 µM and the GI50 (ACHN; read-out: GI50) was 28 µM. For the same compound, the CC50 (ACHN; [5]) was over 100 µM, the TGI (ACHN; read-out: TGI) was over 100 µM and the GI50 (ACHN; read-out: pGI50 (converted)) was 28.2 µM. The CC50 (ACHN; [6]) was 100 µM, the TGI (ACHN; read-out: pTGI (converted)) was 100 µM and the GI50 (MDA-MB-231; read-out: GI50) was 18 µM. It also gave a CC50 (MDA-MB-231; [5]) of over 100 µM, a TGI (MDA-MB-231; read-out: TGI) of over 100 µM and a GI50 (MDA-MB-231; read-out: pGI50 (converted)) of 18.2 µM. It also gave a TGI (MDA-MB-231; read-out: pTGI (converted)) of 100 µM, a GI50 (OVCAR-3; read-out: GI50) of 21 µM and a CC50 (OVCAR-3; [5]) of over 100 µM. The TGI (OVCAR-3; read-out: TGI) was 99 µM, the GI50 (OVCAR-3; read-out: pGI50 (converted)) was 20.4 µM and the CC50 (OVCAR-3; read-out: pLC50 (converted)) was over 100 µM. For the same compound, the TGI (OVCAR-3; read-out: pTGI (converted)) was 100 µM, the GI50 (OVCAR-8; read-out: GI50) was 37 µM and the CC50 (OVCAR-8; [5]) was over 100 µM. For the same compound, the TGI (OVCAR-8; read-out: TGI) was over 100 µM, the GI50 (OVCAR-8; read-out: pGI50 (converted)) was 37.2 µM and the TGI (OVCAR-8; read-out: pTGI (converted)) was 100 µM. The GI50 ([2]; read-out: GI50) was 25 µM, the CC50 [2, 5] was over 100 µM and the TGI ([2]; read-out: TGI) was over 100 µM. It also gave a GI50 ([2]; read-out: pGI50 (converted)) of 25.1 µM, a CC50 [2, 6] of 100 µM and a TGI ([2]; read-out: pTGI (converted)) of 100 µM. The GI50 ([3]; read-out: GI50) was 25 µM, the CC50 [3, 5] was over 100 µM and the TGI ([3]; read-out: TGI) was over 100 µM. The GI50 ([3]; read-out: pGI50 (converted)) was 24.5 µM, the CC50 [3, 6] was 100 µM and the TGI ([3]; read-out: pTGI (converted)) was 100 µM. It also gave a GI50 ([4]; read-out: GI50) of 72 µM, a CC50 [4, 5] of over 100 µM and a TGI ([4]; read-out: TGI) of over 100 µM. It also gave a GI50 ([4]; read-out: pGI50 (converted)) of 72.4 µM, a CC50 [4, 6] of 100 µM and a TGI ([4]; read-out: pTGI (converted)) of 100 µM. The GI50 (NCI-H522; read-out: GI50) was 15 µM, the CC50 (NCI-H522; [5]) was over 100 µM and the TGI (NCI-H522; read-out: TGI) was 49 µM.

From ChEMBL document CHEMBL1146459, “Production of biologically active taxoids by a callus culture of Taxus cuspidata” (2004)
